Measurements published in patent US20050137247A1, “Methods and compositions for treatment of hypertension” (The Brigham and Women's Hospital, Inc., priority 2003, published 2005).
“And” between values parts separate entries of the source, which are not always exact repeats. Equal values may be shown once. “Also recorded” adds a separate entry of the source.

Tests used:
Format in all cases: in vivo, human
[1] = tested on: male patients with untreated, uncomplicated, essential hypertension; assay: 24-hour ambulatory blood pressure and heart rate, randomized double-blind placebo-controlled crossover trial
From the text: Patients. Sixteen male patients with untreated, uncomplicated, essential hypertension were included in the study. Women were excluded to prevent possible interference of the menstrual cycle and oral anticonceptives on cardiovascular and circadian regulation. Patients were considered hypertensive, with a daytime ambulatory blood pressure between 140-179 mm Hg systolic or between 90-109 mm Hg diastolic. Secondary hypertension was excluded by medical history and routine laboratory tests. Five patients had never received antihypertensive medication; in the others antihypertensive treatment was stopped at least three weeks before participation. Their mean (±SD) age was 55±8 (range 36-68) years and mean BMI was 26.8±.1.7 (23.3-29.1) kg/m^2. Mean self reported habitual waking and bedtimes were 06:38 a.m. ±55 minutes and 11:29 p.m. ±26 minutes, respectively. […] Five days before and during ambulatory blood pressure measurements, subjects maintained fixed sleep-wake cycles according to their habitual sleep-wake cycle. All procedures were carried out with adequate understanding and written consent of the subjects and were approved by the Ethics Committee of the Academic Medical Center of the University of Amsterdam.
Study Design. […] On assessment days, patients abstained from heavy physical exercise, daytime napping, alcohol and nicotine consumption and coffee was restricted to two consumptions per day during breakfast or lunch. Meal times were restricted to the following periods: breakfast 1 to 1.5 hours after waking; lunch 11 to 10 hours before bedtime; and dinner 5 to 4 hours before bedtime.
(§1) Measurements. […] Ambulatory blood pressure was measured every half hour for 32 hours, from 8 hours before bedtime until bedtime the next day. In addition, noninvasive finger arterial blood pressure recordings were performed by Finometer (TNO Biomedical Instruments, Amsterdam, The Netherlands) (Bos, W. J., et al., Circulation, 94 (1996) 1870-5), to estimate changes in total peripheral resistance, stroke volume, and cardiac output, as possible explanations for changes in blood pressure. […] During all ambulatory blood pressure recordings, the subjects reported sleep details in a sleep-wake diary and wore an Actiwatch (Cambridge Neurotechnology Ltd, Cambridge, UK), a piezo-electric accelerometer, on the non-dominant wrist to assess motor activity at 1 min intervals for the estimation of sleep quality.
(§2) Data analysis. Sleep blood pressure was defined as the mean blood pressure from the time of falling asleep until the time of awakening, as determined by actigraphy. Awake blood pressure was defined as the mean blood pressure during the remaining portion of the day. Continuous Finometer data were analyzed by Beatscope software (TNO-Biomedical Instruments, Amsterdam, The Netherlands) (Bos, W. J., et al., Circulation, 94 (1996) 1870-5). Periods of 5 min with a stable blood pressure signal were used for both supine and standing periods. To accurately determine the sleeping period and estimate sleep quality, automatic sleep/wake scoring was performed with Actiwatch Sleep Analysis 98 (Cambridge Neurotechnology Ltd, V4.15), with sensitivity set to medium, on the actigraphy data between “bed time” and “get up time” derived from the sleep-wake diaries. Three sleep variables were objectively computed by this analysis. ‘Sleep latency’ was the calculated time between bed time and sleep onset. The time asleep was termed actual sleep time. The percentage of time asleep while in bed was defined as ‘sleep efficiency’.
Statistics. Because not all variables were normally distributed (Shapiro's-Wilk's W Test), non-parametric tests were used as required. Consequently, Altman's crossover analysis methods were applied (Altman, D. G., Crossover trials, Practical statistics for medical research, Vol. 1, Chapman and Hall. London, 1991, pp. 467-471). […]

[2] = tested on: male patients with untreated, uncomplicated, essential hypertension; assay: 24-hour rhythm analysis of ambulatory blood pressure (peaked and skewed cosine fit)
From the text: Statistics. Because not all variables were normally distributed (Shapiro's-Wilk's W Test), non-parametric tests were used as required. Consequently, Altman's crossover analysis methods were applied (Altman, D. G., Crossover trials, Practical statistics for medical research, Vol. 1, Chapman and Hall. London, 1991, pp. 467-471). […] Student's t-tests for independent variables or Mann-Whitney U tests were applied for all dependent variables to test a carryover effect for (1) single treatment periods, and (2) repeated treatment periods. Correlation between a change in sleep quality and a change in sleep blood pressure was tested by linear correlation. The 24-hour rhythm in blood pressure was fitted by standard cyclic regression models: cosine, cosine with second harmonic, skewed cosine, peaked cosine, and skewed and peaked cosine analysis (Batschelet, E., Circular Statistics in Biology, Academic Press, 1981, 371 pp.). Of these, the latter best fitted the data as indicated by the Akaike's Information Criterion (AIC) (de Leeuw, J., introduction to Akaike (1973) Information Theory and an Extension of the Maximum Likelihood Principle. In S. Kotz and N. L. Johnson (Eds.), Breakthroughs in statistics, Vol. 1, Springer-Verlag. London, 1992 pp. 599-609) and was used for subsequent analysis. Two-tailed p values lower than 0.05 were considered to indicate statistical significance. All group data are presented as means±standard deviation (SD) or means including 95% confidence interval (95% CI).
24-Hour rhythm analysis of ambulatory blood pressure. For 24-hour rhythm analysis of ambulatory blood pressure, the peaked and skewed cosine analysis was used. […] The decrease in minimum and mean systolic blood pressure was not significant (−6±15 mm Hg; p=0. 13 and −5±12 mm Hg; p=0. 19).

[3] = tested on: male patients with untreated, uncomplicated, essential hypertension; assay: Finger arterial blood pressure recordings by Finometer; conditions: repeated melatonin; supine resting or standing, daytime
Description: as §1, §2

[4] = tested on: male patients with untreated, uncomplicated, essential hypertension; assay: Actigraphic estimates of sleep quality (Actiwatch)
Description: as §1, §2

[5] = 3 weeks melatonin vs 3 weeks placebo, not significant
[6] = acute (single) melatonin 2.5 mg vs single placebo
[7] = after 3 weeks melatonin 2.5 mg orally 1 hour before bedtime, mean ± SD
[8] = individual patient 14, relative to placebo level (FIG. 2)
[9] = 3 weeks melatonin vs 3 weeks placebo
[10] = repeated melatonin vs placebo, no effect

COc1ccc2[nH]cc(CCNC(C)=O)c2c1 [Melatonin, N-acetyl-5-methoxy-tryptamine]
change in awake diastolic blood pressure [1, 5]: −1 mm Hg | change in awake systolic blood pressure [1, 5]: −5 mm Hg | effect on diastolic blood pressure awake [1, 6]: no effect | effect on diastolic blood pressure whilst asleep [1, 6]: no effect | effect on systolic blood pressure awake [1, 6]: no effect | effect on systolic blood pressure whilst asleep [1, 6]: no effect | Sleeping Period Distolic BP [1, 7]: 82.4 ± 4.0 | Sleeping Period Heart Rate [1, 7]: 61.1 ± 6.5 | Sleeping Period Systolic BP [1, 7]: 130.6 ± 10.0 | Waking Period Distolic BP [1, 7]: 95.4 ± 7.7 | Waking Period Heart Rate [1, 7]: 71.2 ± 7.8 | Waking Period Systolic BP [1, 7]: 147.6 ± 12.3 | effect of repeated melatonin on waking diastolic blood pressure, patient 14 [1, 8]: −27 mm Hg | effect of repeated melatonin on waking systolic blood pressure, patient 14 [1, 8]: −53 mm Hg | reduction of sleep diastolic blood pressure ([1]; repeated (3 weeks daily) 2.5 mg melatonin 1 hour before bedtime vs 3 weeks placebo): 4±6 mm Hg and 4 mm Hg | effect on heart rate ([1]; repeated (3 weeks daily) 2.5 mg melatonin vs placebo): without a change; also recorded: did not affect | effect on blood pressure ([1]; single dose of melatonin 2.5 mg): no effect | decrease of calculated mean diastolic blood pressure [2, 9]: 4±6 mm Hg | decrease of calculated minimum diastolic blood pressure [2, 9]: 5±7 mm Hg | increase of day-night rhythm amplitude of diastolic blood pressure [2, 9]: 25% | increase of day-night rhythm amplitude of systolic blood pressure [2, 9]: 15% | change in mean systolic blood pressure [2, 5]: −5±12 mm Hg | change in minimum systolic blood pressure [2, 5]: −6±15 mm Hg | effect on time of the minimum blood pressure ([2]; repeated melatonin vs placebo): no effects | change in maximum diastolic blood pressure [2, 10]: −1±5 mm Hg | change in maximum systolic blood pressure [2, 10]: −2±12 mm Hg | effect on blood pressure (Finometer) [3]: no elect | effect on cardiac output (Finometer) [3]: no elect | effect on heart rate (Finometer) [3]: no elect | effect on stroke volume (Finometer) [3]: no elect | effect on total peripheral resistance (Finometer) [3]: no elect | effect on actual sleep time ([4]; acute melatonin application): no significant effect | effect on sleep latency ([4]; acute melatonin application): no significant effect | sleep latency ([4]; after repeated melatonin (placebo 33 minutes)): 22 min | actual sleep time ([4]; after repeated melatonin (placebo 5.6 hours)): 6.1 h
